From ChEMBL document CHEMBL5523736, “The First Discovery of Marine Polyoxygenated Cembranolides as Potential Agents for the Treatment of Ulcerative Colitis” (J Med Chem, 2024)
Each block holds one compound with its values, some of them ahead of it. Activity calls are given as the source filed them. The rule behind the calls is not given here.

Assays:
[1] = system: RAW264.7; experiment: Antiinflammatory activity in mouse RAW264.7 cells assessed as inhibition of LPS-induced NO production at 20 uM incubated for 24 hrs relative to control; type: functional
[2] = Cytotoxicity against mouse RAW264.7 cells assessed as cell viability at 20 uM incubated for 24 hrs by CCK8 assay relative to control; type: toxicity, cell-based; conditions: read-out: Activity
[3] = system: RAW264.7; experiment: Antiinflammatory activity in mouse RAW264.7 cells assessed as inhibition of LPS-induced NO production incubated for 24 hrs; type: functional, cell-based; conditions: RAW264.7, 24 h
[4] = system: RAW264.7; experiment: Antiinflammatory activity in LPS-induced mouse RAW264.7 cells assessed as reduction in IL-1beta mRNA expression level at 20 uM by qRT-PCR analysis; type: functional, cell-based
[5] = system: RAW264.7; experiment: Antiinflammatory activity in LPS-induced mouse RAW264.7 cells assessed as reduction in IL-6 mRNA expression level at 20 uM by qRT-PCR analysis; type: functional, cell-based
[6] = system: RAW264.7; experiment: Antiinflammatory activity in LPS-induced mouse RAW264.7 cells assessed as reduction in iNOS mRNA expression level at 20 uM by qRT-PCR analysis; type: functional, cell-based
[7] = system: RAW264.7; experiment: Antiinflammatory activity in LPS-induced mouse RAW264.7 cells assessed as reduction in TNF-alpha mRNA expression level at 20 uM by qRT-PCR analysis; type: functional, cell-based
[8] = system: Mus musculus; experiment: Antiinflammatory activity against DSS-induced ulcerative colitis C57BL/6J mouse model assessed as reduction in H and E histopathological score at 15 mg/kg, po administered for 8 days by H and E staining based analysis; type: functional, organism-based; conditions: time 8.0 day
[9] = system: Mus musculus; experiment: Antiinflammatory activity against DSS-induced ulcerative colitis C57BL/6J mouse model assessed as reduction in inflammatory cell infiltration in colon at 15 mg/kg, po administered for 8 days by Hand E staining based histopathological analysis; type: functional, organism-based; conditions: time 8.0 day
[10] = system: Mus musculus; experiment: Antiinflammatory activity against DSS-induced ulcerative colitis C57BL/6J mouse model assessed as reduction in intestinal epithelial destruction in colon at 15 mg/kg, po administered for 8 days by Hand E staining based histopathological analysis; type: functional, organism-based; conditions: time 8.0 day
[11] = system: RAW264.7; experiment: Antiinflammatory activity in LPS-induced mouse RAW264.7 cells assessed as inhibition of TNF-alpha production at 20 uM by ELISA; type: functional, cell-based
[12] = system: Mus musculus; experiment: Antiinflammatory activity against DSS-induced ulcerative colitis C57BL/6J mouse model assessed as increase in CLAUDIN-1 protein level in colon at 15 mg/kg, po administered for 8 days by Western blot analysis; type: functional, organism-based; conditions: time 8.0 day
[13] = system: Mus musculus; experiment: Antiinflammatory activity against DSS-induced ulcerative colitis C57BL/6J mouse model assessed as reduction in Ccl2 mRNA expression level in colon at 15 mg/kg, po administered for 8 days by qRT-PCR analysis; type: functional, organism-based; conditions: time 8.0 day
[14] = system: Mus musculus; experiment: Antiinflammatory activity against DSS-induced ulcerative colitis C57BL/6J mouse model assessed as reduction in goblet cell loss in colon at 15 mg/kg, po administered for 8 days by alcian blue staining based analysis; type: functional, organism-based; conditions: time 8.0 day
[15] = target: Transcription factor p65 (Mus musculus) (UniProt Q04207); experiment: Inhibition of p65 activation in LPS-induced mouse RAW264.7 cells at 20 uM by Western blot analysis; type: cell-based
[16] = system: Mus musculus; experiment: Effect on DSS-induced body weight loss in ulcerative colitis male C57BL/6J mouse model at 15 mg/kg, po administered for 8 days; type: functional, organism-based; conditions: time 8.0 day
[17] = system: RAW264.7; experiment: Inhibition of ERK phosphorylation in LPS-induced mouse RAW264.7 cells at 20 uM by Western blot analysis; type: cell-based
[18] = system: Mus musculus; experiment: Antiinflammatory activity against DSS-induced ulcerative colitis C57BL/6J mouse model assessed as reduction in iNOS mRNA expression level in colon at 15 mg/kg, po administered for 8 days by qRT-PCR analysis; type: functional, organism-based; conditions: time 8.0 day
[19] = system: RAW264.7; experiment: Inhibition of NF-kappaB transcriptional activity in LPS-induced mouse RAW264.7 cells at 20 uM by luciferase based assay; type: cell-based
[20] = system: RAW264.7; experiment: Inhibition of P38 phosphorylation in LPS-induced mouse RAW264.7 cells at 20 uM by Western blot analysis; type: cell-based
[21] = system: Mus musculus; experiment: Antiinflammatory activity against DSS-induced ulcerative colitis C57BL/6J mouse model assessed as reduction in TNF-alpha mRNA expression level in colon at 15 mg/kg, po administered for 8 days by qRT-PCR analysis; type: functional, organism-based; conditions: time 8.0 day
[22] = system: Mus musculus; experiment: Antiinflammatory activity against DSS-induced ulcerative colitis C57BL/6J mouse model assessed as reduction in DAI score at 15 mg/kg, po administered for 8 days; type: functional, organism-based; conditions: time 8.0 day
[23] = system: Mus musculus; experiment: Antiinflammatory activity against DSS-induced ulcerative colitis C57BL/6J mouse model assessed as increase in OCCLUDIN protein level in colon at 15 mg/kg, po administered for 8 days by Western blot analysis; type: functional, organism-based; conditions: time 8.0 day
[24] = system: Mus musculus; experiment: Antiinflammatory activity against DSS-induced ulcerative colitis C57BL/6J mouse model assessed as reduction in IL-1beta mRNA expression level in colon at 15 mg/kg, po administered for 8 days by qRT-PCR analysis; type: functional, organism-based; conditions: time 8.0 day
[25] = system: Mus musculus; experiment: Antiinflammatory activity against DSS-induced ulcerative colitis C57BL/6J mouse model assessed as increase in […] protein level in colon at 15 mg/kg, po administered for 8 days by Western blot analysis; type: functional, organism-based; conditions: time 8.0 day
[26] = target: c-Jun N-terminal kinase (Mus musculus) (UniProt Q91Y86+Q9WTU6+Q61831); experiment: Inhibition of JNK phosphorylation in LPS-induced mouse RAW264.7 cells at 20 uM by Western blot analysis; type: cell-based
[27] = system: RAW264.7; experiment: Antiinflammatory activity in LPS-induced mouse RAW264.7 cells assessed as inhibition of IL-6 production at 20 uM by ELISA; type: functional, cell-based

c-Jun N-terminal kinase (Mus musculus), sequence (Q61831 whole entry, looked up): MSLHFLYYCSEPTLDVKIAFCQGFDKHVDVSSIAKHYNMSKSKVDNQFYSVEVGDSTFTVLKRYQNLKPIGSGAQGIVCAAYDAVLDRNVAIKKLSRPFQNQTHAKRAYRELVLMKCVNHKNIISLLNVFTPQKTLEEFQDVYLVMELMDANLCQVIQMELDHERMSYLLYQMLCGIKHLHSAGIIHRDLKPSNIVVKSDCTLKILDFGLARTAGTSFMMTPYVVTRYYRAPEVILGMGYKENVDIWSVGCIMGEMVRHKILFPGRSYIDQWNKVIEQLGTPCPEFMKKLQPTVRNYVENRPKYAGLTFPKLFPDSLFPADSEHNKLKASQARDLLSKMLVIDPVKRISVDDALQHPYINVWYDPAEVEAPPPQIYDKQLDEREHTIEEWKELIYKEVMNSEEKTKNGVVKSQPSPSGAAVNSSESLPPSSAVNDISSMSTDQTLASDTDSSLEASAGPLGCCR
c-Jun N-terminal kinase (Mus musculus), sequence (Q91Y86 whole entry, looked up): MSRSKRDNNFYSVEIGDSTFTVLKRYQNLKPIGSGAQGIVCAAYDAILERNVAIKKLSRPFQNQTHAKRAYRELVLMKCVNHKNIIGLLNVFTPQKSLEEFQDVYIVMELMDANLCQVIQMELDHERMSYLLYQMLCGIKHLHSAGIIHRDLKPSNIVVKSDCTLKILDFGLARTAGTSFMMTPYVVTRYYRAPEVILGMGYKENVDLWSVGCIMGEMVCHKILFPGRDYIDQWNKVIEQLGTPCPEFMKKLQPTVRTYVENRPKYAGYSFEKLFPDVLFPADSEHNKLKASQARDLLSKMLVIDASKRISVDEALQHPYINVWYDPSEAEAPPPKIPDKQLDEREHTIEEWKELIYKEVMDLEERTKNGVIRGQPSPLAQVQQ
c-Jun N-terminal kinase (Mus musculus), sequence (Q9WTU6 whole entry, looked up): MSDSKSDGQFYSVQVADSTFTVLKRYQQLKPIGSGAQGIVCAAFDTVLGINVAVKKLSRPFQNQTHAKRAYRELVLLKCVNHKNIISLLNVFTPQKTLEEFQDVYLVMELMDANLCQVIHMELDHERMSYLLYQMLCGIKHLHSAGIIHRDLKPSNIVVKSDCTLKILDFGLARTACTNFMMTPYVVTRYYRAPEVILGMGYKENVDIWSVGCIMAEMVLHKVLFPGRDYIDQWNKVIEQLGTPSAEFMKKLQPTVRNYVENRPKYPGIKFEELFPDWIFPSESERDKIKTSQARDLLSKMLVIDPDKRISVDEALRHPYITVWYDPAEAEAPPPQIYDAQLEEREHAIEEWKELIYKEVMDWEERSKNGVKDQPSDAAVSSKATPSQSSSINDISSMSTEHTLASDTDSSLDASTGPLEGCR
Transcription factor p65 (Mus musculus), sequence (Q04207 whole entry): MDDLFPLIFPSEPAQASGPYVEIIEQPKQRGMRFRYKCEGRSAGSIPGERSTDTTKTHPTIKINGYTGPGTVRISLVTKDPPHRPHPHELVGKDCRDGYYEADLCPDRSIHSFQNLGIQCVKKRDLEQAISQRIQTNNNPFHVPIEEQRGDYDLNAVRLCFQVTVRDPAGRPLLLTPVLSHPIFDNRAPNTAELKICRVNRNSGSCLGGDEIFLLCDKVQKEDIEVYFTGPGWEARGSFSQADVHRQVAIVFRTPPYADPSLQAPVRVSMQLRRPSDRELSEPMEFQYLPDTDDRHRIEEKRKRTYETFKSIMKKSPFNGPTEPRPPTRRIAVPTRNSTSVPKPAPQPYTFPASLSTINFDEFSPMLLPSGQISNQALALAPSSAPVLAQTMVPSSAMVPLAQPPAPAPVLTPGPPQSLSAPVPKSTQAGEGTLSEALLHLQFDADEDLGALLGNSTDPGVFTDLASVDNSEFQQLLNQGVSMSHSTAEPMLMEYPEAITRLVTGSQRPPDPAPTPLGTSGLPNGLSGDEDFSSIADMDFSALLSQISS

Structure (SMILES): C=C(C(=O)OC)[C@@H]1CC[C@@]2(C)O[C@@H]2CC[C@](C)(O)/C=C/C[C@]2(C)O[C@H]2C1
inhibition at 20 µM [1]: 31.1%
viability at 24 h, 20 µM [2]: 108%

Structure (SMILES): C=C1C(=O)O[C@]2(C)CC[C@@H]1C[C@H](OC(C)=O)[C@@]1(C)CC[C@H](O1)C(=C)CC[C@H]2OC(C)=O [GRANOSOLIDE B]
inhibition at 20 µM [1]: 56%
viability at 24 h, 20 µM [2]: 102%

Structure (SMILES): C=C1C(=O)O[C@]2(C)CC[C@@H]1C[C@H](OC(C)=O)[C@@]1(C)CC[C@H](O1)[C@](C)(O)CC[C@H]2O
inhibition at 20 µM [1]: 25.8%
viability at 24 h, 20 µM [2]: 109%

Structure (SMILES): C=C1C(=O)O[C@]2(C)CC[C@@H]1C[C@H](O)[C@@]1(C)CC[C@H](O1)C(=C)CC[C@H]2OC(C)=O [GRANOSOLIDE A]
inhibition at 20 µM [1]: 31%
viability at 24 h, 20 µM [2]: 88.7%

IC50 [3]: 31.7 µM
Structure (SMILES): CNC(=N)NCCC[C@H](N)C(=O)O [TILARGININE]
inhibition at 20 µM [1]: 27.4%
viability at 24 h, 20 µM [2]: 92.7%

IC50 [3]: 1.98 µM
Structure (SMILES): C=C1C(=O)O[C@]2(C)CC[C@@H]1C[C@@H]1O[C@@]1(C)CC[C@H](O)[C@](C)(O)CCC2=O
Activity [4]: Active
inhibition at 20 µM [1]: 90%
Activity [5]: Active
Activity [6]: Active
viability at 24 h, 20 µM [2]: 89%
Activity [7]: Active

Structure (SMILES): C=C(C(=O)OC)[C@@H]1C/C=C(/C)[C@@H](O)CC/C(C)=C/CC[C@]2(C)O[C@H]2C1
inhibition at 20 µM [1]: 79.3%
viability at 24 h, 20 µM [2]: 93.7%

Structure (SMILES): C=C(C(=O)OC)[C@@H]1CC[C@]2(C)O[C@H]2CC[C@](C)(OO)/C=C/C[C@]2(C)O[C@@H]2C1
inhibition at 20 µM [1]: 35.4%
viability at 24 h, 20 µM [2]: 87.4%

inhibition [15]: Active
IC50 [3]: 1.15 µM
inhibition [26]: Active
Structure (SMILES): C=C1C(=O)O[C@]2(C)CC[C@@H]1C[C@@H]1O[C@@]1(C)CC/C=C(\C)CC[C@H]2OC(C)=O
Activity [8]: Active
Activity [4]: Active
Activity [9]: Active
Activity [10]: Active
Activity [11]: Active
Activity [12]: Active
inhibition at 20 µM [1]: 139%
Activity [13]: Active
Activity [14]: Active
Activity [5]: Active
Activity [16]: inactive
inhibition [17]: Active
Activity [6]: Active
Activity [18]: Active
inhibition [19]: Active
inhibition [20]: inactive
Activity [21]: Active
Activity [22]: Active
Activity [23]: Active
Activity [24]: Active
Activity [25]: Active
viability at 24 h, 20 µM [2]: 89%
Activity [27]: Active
Activity [7]: Active

IC50 [3]: 12.7 µM
Structure (SMILES): C=C1C(=O)O[C@]2(C)CC[C@@H]1C/C=C(\C)CC/C=C(\C)CC[C@@H]2O
inhibition at 20 µM [1]: 93.1%
viability at 24 h, 20 µM [2]: 93.7%

IC50 [3]: 10.1 µM
Structure (SMILES): C=C1C(=O)O[C@]2(C)CC[C@@H]1C[C@@H]1O[C@@]1(C)C/C=C/[C@@](C)(O)CC[C@H]2OC(C)=O
inhibition at 20 µM [1]: 99.5%
viability at 24 h, 20 µM [2]: 87.9%

Structure (SMILES): C=C(C(=O)OC)[C@@H]1CC[C@]2(C)O[C@@]2(O)CC/C(C)=C/CC[C@]2(C)O[C@@H]2C1
inhibition at 20 µM [1]: 0%
viability at 24 h, 20 µM [2]: 94%

Structure (SMILES): C=C1C(=O)O[C@]2(C)CC[C@@H]1C[C@H](O)[C@@]1(C)CC[C@H](O1)C(=C)CC[C@H]2O
inhibition at 20 µM [1]: 39%
viability at 24 h, 20 µM [2]: 89%

Structure (SMILES): C=C(C(=O)OC)[C@@H]1CC[C@@](C)(O)[C@@H](OC(C)=O)CC/C(C)=C/CC[C@]2(C)O[C@H]2C1
inhibition at 20 µM [1]: -4.67%
viability at 24 h, 20 µM [2]: 104%

Structure (SMILES): C=C1CO[C@]2(C)CC[C@@H]1C[C@]1(O)O[C@@]1(C)CC/C=C(\C)CC[C@@H]2O
inhibition at 20 µM [1]: -146%
viability at 24 h, 20 µM [2]: 82.3%
